{
  "source": "paper PMC5520929",
  "about": "“Bilirubin neurotoxicity is associated with proteasome inhibition” (Cell Death & Disease, 2017)",
  "target": "T1, 20S proteasome chymotrypsin-like (CT-like) peptidase (Homo sapiens, UniProt P28074)",
  "T1 construct": "gene PSMB5; purified human 20S proteasomes; with 20S proteasome",
  "T1 sequence (P28074 60-263)": "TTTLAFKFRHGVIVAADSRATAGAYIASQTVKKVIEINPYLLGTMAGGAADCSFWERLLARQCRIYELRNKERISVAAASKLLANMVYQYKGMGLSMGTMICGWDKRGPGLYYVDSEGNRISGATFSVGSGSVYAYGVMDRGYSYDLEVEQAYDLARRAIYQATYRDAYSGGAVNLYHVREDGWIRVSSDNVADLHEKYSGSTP",
  "assay": "fluorogenic Suc-LLVY-AMC peptidase assay on purified human",
  "type": "biochemical",
  "data": [
    {"smiles": "C=CC1=C(C)/C(=C/c2[nH]c(Cc3[nH]c(/C=C4\\NC(=O)C(C)=C4C=C)c(C)c3CCC(=O)O)c(CCC(=O)O)c2C)NC1=O", "note": "[Bil, bilirubin]", "values": [
      {"measurement": "IC50", "result": "~20", "unit": "µM"}
    ]}
  ]
}
